The values below come from BindingDB's records for doi:10.1021/jm9805642 (Pharmacia and Upjohn, 1999).

pIC50: −log10 of the molar value.

The target in this assay is Cytosol aminopeptidase (Sus scrofa) (UniProt P28839). Kind of assay: Inhibition against Leucyl aminopeptidase from pig kidney.
Sequence of Cytosol aminopeptidase (Sus scrofa) (P28839 whole entry, looked up): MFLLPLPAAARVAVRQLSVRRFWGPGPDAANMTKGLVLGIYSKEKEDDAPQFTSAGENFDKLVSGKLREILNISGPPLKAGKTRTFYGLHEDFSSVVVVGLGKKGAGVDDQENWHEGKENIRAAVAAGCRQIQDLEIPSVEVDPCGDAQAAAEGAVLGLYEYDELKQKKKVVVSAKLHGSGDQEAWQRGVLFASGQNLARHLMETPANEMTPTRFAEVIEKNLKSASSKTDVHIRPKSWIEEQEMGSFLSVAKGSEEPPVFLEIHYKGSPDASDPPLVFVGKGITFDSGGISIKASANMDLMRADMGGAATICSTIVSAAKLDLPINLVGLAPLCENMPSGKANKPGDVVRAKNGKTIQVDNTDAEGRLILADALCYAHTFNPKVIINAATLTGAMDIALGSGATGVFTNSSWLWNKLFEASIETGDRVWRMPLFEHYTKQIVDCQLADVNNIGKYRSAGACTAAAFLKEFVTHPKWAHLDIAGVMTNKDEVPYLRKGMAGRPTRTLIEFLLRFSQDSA
For the compound `C[C@H](NC(=O)[C@@H]1CCCN1C(=O)C1CCCC1S)C(N)=O` (stereo partly drawn) [(S)-1-(2-Mercapto-cyclopentanecarbonyl)-pyrrolidine-2-carboxylic acid ((S)-1-carbamoyl-ethyl)-amide], the negative-log IC50 (pIC50) is < 3.00. `NC(=O)[C@@H]1CCCN1C(=O)[C@@H]1CCCN1C(=O)[C@@H](O)[C@H](N)Cc1ccccc1` [(S)-1-[(S)-1-((2S,3R)-3-Amino-2-hydroxy-4-phenyl-butyryl)-pyrrolidine-2-carbonyl]-pyrrolidine-2-carboxylic acid amide] had a pIC50 of 5.60. Take `C[C@H](NC(=O)[C@@H]1CCCN1C(=O)[C@@H]1CCCN1C(=O)[C@@H](O)[C@H](N)Cc1ccccc1)C(N)=O` [(S)-1-[(S)-1-((2S,3R)-3-Amino-2-hydroxy-4-phenyl-butyryl)-pyrrolidine-2-carbonyl]-pyrrolidine-2-carboxylic acid ((S)-1-carbamoyl-ethyl)-amide]: the negative-log IC50 (pIC50) was 6.52. Compared with the last compound, the pIC50 is 0.92 log units higher.

With `C[C@H](NC(=O)[C@@H]1CCCN1C(=O)[C@@H]1CC(O)CN1C(=O)[C@@H](O)[C@H](N)Cc1ccccc1)C(N)=O` (stereo not given in full) [1-[1-(3-Amino-2-hydroxy-4-phenyl-butyryl)-4-hydroxy-pyrrolidine-2-carbonyl]-pyrrolidine-2-carboxylic acid (1-carbamoyl-ethyl)-amide], the pIC50 was 5.80. Compared with the last compound, the pIC50 is 0.72 log units lower. As for `C[C@H](NC(=O)[C@@H]1CCCN1C(=O)C1CCCCC1C(=O)NO)C(N)=O` (stereo partly drawn) [(S)-1-(2-Hydroxycarbamoyl-cyclohexanecarbonyl)-pyrrolidine-2-carboxylic acid ((S)-1-carbamoyl-ethyl)-amide], the figure is < 3.00.

Broadly, the pIC50 is −log10 of the IC50, conventionally taken in molar units. A lower pIC50 goes with a large IC50.
